From paper PMC5729604, “Dual inhibitors of hepatitis C virus and hepatocellular carcinoma: design, synthesis and docking studies” (Future Science OA, 2017)
Entries after “also recorded” stand apart in the source; their conditions may differ.

Tests used:
In vitro hemolytic assay = assay type: cell-based; conditions: 2% erythrocyte suspension (washed red blood cells); 2% erythrocyte suspension, 3 μl of 1 mg/ml compound in DMF per 240 μl well, 37°C 30 min, absorbance 405 nm; <5% considered nontoxic
Method: Compounds 5a-x and 6a-h were subjected to the in vitro hemolytic assay to identify those which cause hemolysis to red blood cells (RBCs). Consequently, these compounds would be toxic in vivo so they were excluded from further biological screening.
Blood samples (5 ml) were freshly collected into heparinized tubes and were centrifuged (1000 r.p.m. for 20 min) at room temperature. The plasma and buffy coat were removed by Pasteur pipette, and the collected erythrocytes were washed three-times using isotonic buffer solution (0.9% sodium chloride [Sigma-Aldrich, MO, USA]) by centrifugation (2500 r.p.m. for 10 min). A two percent erythrocyte suspension was prepared to be used in the assay.
A 1 mg/ml stock solution of each compound was prepared in DMF (Sigma-Aldrich). Compound wells were prepared by adding 3 μl of the compound solution to 117 μl isotonic buffer solution and 120 μl erythrocyte suspension. Compounds color blank wells were prepared by adding 3 μl compound to 237 μl isotonic buffer solution. Solvent (DMF) wells were prepared by adding 3 μl DMF to 117 μl isotonic buffer solution and 120 μl erythrocyte suspension. Positive control wells (representing 100% hemolysis) were prepared by adding 120 μl erythrocyte suspension to 120 μl distilled water, while negative control wells (representing 0% hemolysis) were prepared by adding 120 μl erythrocyte suspension to 120 μl isotonic buffer solution. Finally, blank wells contained only 240 μl isotonic buffer solution. Each set of samples was pipetted in triplicate. The microtiter plate was then shaken well on bench, incubated at 37°C for 30 min then centrifuged (2000 rpm for 5 min) at room temperature.
A fraction of the supernatant layer (150 μl) of each well was transferred to another 96-well microtiter plate. Erythrocyte hemolysis was determined by reading the absorbance (A) of liberated hemoglobin at 405 nm in the supernatant fraction compared with the 100% hemolysis of erythrocyte. The average value was calculated from triplicate assay: [drawing 2]

[1] = tested on: HepG2 cells infected with hepatitis C virus; assay: In vitro anti-HCV screening, qualitative RT-PCR of viral RNA; assay type: cell-based, HCV genotype-4; conditions: for Result (anti-HCV screening): at the used dose (below LD0 on HepG2 and PBMCs), 72 h, Positive = disappearance of viral RNA-amplified product (174 bp); for in vitro anti-HCV activity, in words: HCV-infected HepG2 cells, RT-PCR
From the text: The safe compounds on RBCs (5a-g, 5i-l, 5p-r, 5v-w, 6b-g) were screened for their in vitro anti-HCV activity using the HCC HepG2 cell line infected with the HCV. Monitoring of the HCV viremia pre- and post-antiviral therapy through the detection of viral RNA using qualitative reverse transcription-PCR (RT-PCR) was adopted in the present investigation. This technique was reported to be the most frequently used, reliable and sensitive technique. Inhibition of viral replication was detected by amplification of viral RNA segments by the RT-PCR technique both in the cultivated infected cells alone (as a positive control) and at the specified dose for each test compound at optimal temperature. The test compound was considered to be active when it can inhibit the viral replication inside the HCV-infected HepG2 cells, as evidenced by the disappearance of the viral RNA-amplified products detected by the RT-PCR (compared with positive control).
The used concentration of each compound was chosen to be lower than the LD0 on HepG2 cells. Therefore, 100% viability of HepG2 cells was maintained, to make sure that any inhibitory effect was due to anti-HCV activity rather than cytotoxic activity on HepG2 cells. Moreover, the used concentrations were also chosen to be lower than the LD0 on PBMCs. Consequently, these doses could be used for inhibition of HCV in normal cells infected with the virus.
HepG2 cells were washed twice in RPMI-1640 medium supplemented with 200 μM L-glutamine and […] HEPES buffer. The cells were suspended at 12 × 10^4 cells/ml in RPMI culture medium (RPMI supplemented medium and 10% FBS). The appropriate number of cells to be used was chosen to be 12 × 10^3 cells/well (100 μl of the prepared suspension), and the cells were left to adhere on the polystyrene […] plates in an incubator at 37°C, 5% CO2 and 95% humidity for 24 h. The cells were washed once using RPMI supplemented medium, then infected with 2% HCV-infected serum (the used serum was a pole of ten patients infected with HCV genotype-4 with viral loads: 3.2–9 million IU/ml, G4 HCV RNA) in RPMI culture medium containing 8% FBS. The used dose of each compound was chosen so as to maintain 100% viability of the HepG2 cell line (the dose was lower than the LD0 of each compound on HepG2 cells as calculated from the in vitro anticancer screening). It was reported that, cultured HepG2 cells lost their biotransformation activity due to decrease in cytochrome (CYP) transcription. This waived its effect on the compounds stability during the test. Negative control is HepG2 cells with culture medium without addition of HCV infected serum or addition of tested compounds. Positive control is HepG2 cells with culture medium and infected HCV serum but without addition of tested compounds. After addition of the compounds, the plates were incubated at 37°C, 5% CO2 and 95% humidity for 72 h, followed by RNA extraction. The RNA strand was detected by RT-PCR using HCV-specific primers to the […] region of the virus.
RNA was extracted from HepG2 cells using the method described by El-Awady et al.. Culture cells were mixed with 200 μl of 4 mol/l guanidinium isothiocyanate (Fischer Bioreagents) containing 25 mmol/l sodium citrate (MP Biomedicals, CA, USA), 0.5% sarkosyl (Fischer Bioreagents), 0.1 mol/l β-mercaptoethanol (MP Biomedicals), and 100 μl sodium acetate (Merck). The lysed cells were mixed with an equal volume of phenol, chloroform and isoamyl alcohol (25:24:1, pH 4; Fischer Bioreagents). After vortexing, the mixture was centrifuged (14,000 r.p.m. for 10 min) at 4°C. The aqueous layer was collected and mixed with an equal volume of isopropanol (Acros Organics, Geel, Belgium). After incubation at -20°C overnight, RNA was precipitated by centrifugation (14,000 r.p.m. for 30 min) at 4°C, and the precipitated RNA was washed twice with 70% ethanol. […]

Row | SMILES | hemolysis at 30 min, 12.5 µg/ml (In vitro hemolytic assay) [%] | Result (anti-HCV screening) [1] | in vitro anti-HCV activity, in words [1]
1 | COc1ccc(-c2nn(-c3ccccc3)cc2C=C2SC(=NN=C(C)c3nc4ccccc4[nH]3)N(c3ccc(Cl)cc3)C2=O)cc1 [Compound 5r, 2-[1-(1H-Benzimidazole-2-yl)ethylidenehydrazono]-5-{[3-(4-methoxyphenyl)-1-phenyl-1H-pyrazol-4-yl]methylene}-3-(4-chlorophenyl)thiazolidin-4-one] | 1.87 | Negative | –
2 | COc1ccc(-c2nn(-c3ccccc3)cc2C=C2SC(=NN=C(C)c3cc4ccccc4o3)N(c3ccc(OC)cc3)C2=O)cc1 [Compound 5i, 2-[1-(Benzofuran-2-yl)ethylidenehydrazono]-5-{[3-(4-methoxyphenyl)-1-phenyl-1H-pyrazol-4-yl]methylene}-3-(4-methoxyphenyl)thiazolidin-4-one] | 2.97 | Negative | –
3 | CC(=NN=C1SC(=Cc2cn(-c3ccccc3)nc2-c2ccccc2)C(=O)N1c1ccccc1)c1cc2ccccc2o1 [Compound 5a, 2-[1-(Benzofuran-2-yl)ethylidenehydrazono]-5-[(1,3-Diphenyl-1H-pyrazol-4-yl)methylene]-3-phenylthiazolidin-4-one] | 3.27 | Positive | showed in vitro anti-HCV activity; also recorded: exhibited in vitro anti-HCV activity
4 | CC(=NN=C1SC(=C2C(=O)Nc3ccccc32)C(=O)N1C1CCCCC1)c1cc2ccccc2o1 [Compound 6d, 2-[1-(Benzofuran-2-yl)ethylidenehydrazono]-5-(2-oxoindolin-3-ylidene)-3-cyclohexylthiazolidin-4-one] | 1.31 | Negative | –
5 | CC(=NN=C1SC(=Cc2cn(-c3ccccc3)nc2-c2ccccc2)C(=O)N1C1CCCCC1)c1cc2ccccc2o1 [Compound 5j, 2-[1-(Benzofuran-2-yl)ethylidenehydrazono]-5-[(1,3-Diphenyl-1H-pyrazol-4-yl)methylene]-3-cyclohexylthiazolidin-4-one] | 3.01 | Negative | –
6 | CC(=NN=C1SC(=C2C(=O)Nc3ccccc32)C(=O)N1c1ccccc1)c1nc2ccccc2[nH]1 [Compound 6e, 2-[1-(1H-Benzimidazole-2-yl)ethylidenehydrazono]-5-(2-oxoindolin-3-ylidene)-3-phenylthiazolidin-4-one] | 4.51 | Negative | –
7 | COc1ccc(N2C(=O)C(=Cc3cn(-c4ccccc4)nc3-c3ccccc3)SC2=NN=C(C)c2cc3ccccc3o2)cc1 [Compound 5g, 2-[1-(Benzofuran-2-yl)ethylidenehydrazono]-5-[(1,3-Diphenyl-1H-pyrazol-4-yl)methylene]-3-(4-methoxyphenyl)thiazolidin-4-one] | 2.03 | Negative | –
8 | COc1ccc(-c2nn(-c3ccccc3)cc2C=C2SC(=NN=C(C)c3cc4ccccc4o3)N(C3CCCCC3)C2=O)cc1 [Compound 5l, 2-[1-(Benzofuran-2-yl)ethylidenehydrazono]-5-{[3-(4-methoxyphenyl)-1-phenyl-1H-pyrazol-4-yl]methylene}-3-cyclohexylthiazolidin-4-one] | 2.89 | Positive | showed in vitro anti-HCV activity; also recorded: exhibited in vitro anti-HCV activity
